Test results from patent US7285621B2, “Multiple branch peptide construction” (Ambrilia Biopharma, priority 1999, dated 2007).
Read-outs that look alike come from different tables or passages of the source.

Tests used:
HIV-1NL4-3 [1] = assay: HIV-1NL4-3 infection of C8166 cells (syncytia formation, p24 ELISA); format: cell-based; parameters: key to Syncytium formation: ++: number of syncytia present in the well were similar to that in control untreated well (35 to 40 syncitia per well); −: total absence of syncitia in the well; ±: presence of 1 to 3 syncitia in the well; conditions: for P24 / Syncytium formation: C8166 cells
Experimental: C8188 cells were infected with HIV to establish a baseline control. Similar C8188 cells were pretreated the invented MBPCs and then subjected to HIV to determine inhibition rates. The results are illustrated in FIGS. 1A, 1B and 2.
Samples of 3×10^5 C8166 cells were placed in 96-well plates in a volume of 100 μl of culture medium containing various concentrations of peptide. After a one hour treatment at 37° C., 100 μl of viral solution of HIV-1NL4-3 were added. The cells were exposed to the virus of one hour at 37° C. at a multiplicity of infection of 1,000 TCID50 per ml. After through washing, cells were replaced in 1 ml of R10 with the treatment in 24-well plates and cultured in a 37° C. incubator. C8166 culture medium was replaced at day-4 post-infection. During this assay, treatment with peptide was permanent (before, during and after infection). Assays on C8166 cells have been performed at least twice and in duplicate. Toxicity was evaluated by daily cell count and trypan-blue exclusion assay. Infection of C8166 T-Cells with HIV-1NL4-3 was assessed by virus-induced cytopathic effect (syncytia formation) and by quantification of p24 viral protein in the culture supernatants. Measurements of HIV-1 p24^gag concentrations in the culture supernatants were achieved by ELISA, with a detection cut-off of 5 pg/ml (p24 HIV kit, NEN Dupont, Belgium; Quanti-Kine software, RILAB, Genova, Italy).

H × 10 (HIV-1) strain = tested on: H × 10 (HIV-1) strain
Experimental: SPC3 is (GPGRAF)8-(K)4-(K)2-K-βA-OH as disclosed in WO95/07929. D4 and D5 refer to days 4 and 5 of the experiment. OD stands for Optical Density. N.B. Experiments were performed with non diluted virus solution.

C57/BL6 and Balb-C mice = assay: Intra-cerebroventricular injection toxicity in mice; format: in vivo; conditions: 3×10^−3 M, 100 μg of peptide per 20 g mouse
HIV-1NL4-3 [2] = assay: HIV-1NL4-3 infection of human PBLs/PBMCs (p24 ELISA); format: cell-based; conditions: at a concentration of 1 μM
Experimental: Human peripheral blood lymphocytes (PBLs) obtained from healthy HIV-seronegative donor (Etablissement Francais du Sang, Marseille, France) were isolated by ficoll-Hypaque gradient centrifugation. Cells were cultured in R10 medium supplemented with 20 units/ml of interleukin-2 (IL-2, Proleukin, Chiron, The Netherlands). R10 medium consists of RPMI 1640 supplemented with 2 mM ultraglutamine (BioWhittaker, Vervires, Belgium), penicillin (100 units/ml), streptomycin (100 μg/ml), and 10% heat-inactivated fetal calf serum (BioWhittaker). Cells were first stimulated with phytohemaggiutinin (20 μg/ml)-supplemented R10 (PHA P, DIFCO, Detroit, Mich., USA) for three days. Then, the medium was replaced with R10 supplemented with IL2 (20 units/ml), and subsequently cultures and experiments were carried out in this medium in a 37° C. humidified incubator with 5% CO2.
Samples of 10^6 human PBLs were placed in 96-well plates in 100 μl of R10 containing various concentrations of peptide. After one hour treatment of 37° C., 100 μl of viral solution of HIV-1NL4-3 were added. The cells were exposed to the virus for one hour at 37° C. flushed with 5% CO2. The PBL culture medium was replaced every 3-4 days. The cell viability was assessed by cell counts and trypan-blue exclusion assay. The viral production in the culture supernatant was quantified by p24 ELISA test, as described supra. […]

HIV-1 W5A2A9 isolate = assay: Inhibition of clinical isolates infectivity; format: cell-based; conditions: non-diluted virus solution
Source text: The gp41-derived MBPCs of the invention have been tested in vitro for their ability to inhibit HIV-induced syncytium formation, and infection of human lymphocytes by both HIV-1 and HIV-2 viruses (several laboratory strains including LAV-2B, an HIV-2 virus able to infect some CD4^−/GalCer^− cells, as well as clinical isolates such as JRCSF, P16/B6 and P16/C9). […] Similar results were obtained with other HIV strains and clinical isolates tested so far.
Example shown is the HIV-1 W5A2A9 isolate. N.B. Experiments were performed with non-diluted virus solution.

[3] = Molarity 1 × 10^−5, day 4, non diluted virus solution
[4] = Molarity 1 × 10^−6, day 4, non diluted virus solution
[5] = Molarity 5 × 10^−5, day 4, non diluted virus solution
[6] = Molarity 5 × 10^−5, day 5, non diluted virus solution
[7] = Molarity 5 × 10^−6, day 4, non diluted virus solution

In the case of `Cc1cn([C@H]2C[C@H](N=[N+]=[N-])[C@@H](CO)O2)c(=O)[nH]c1=O` [AZT, reference compound], the P24 (HIV-1NL4-3 [1]; peptide 1 μm) is reported as 0 pg/mL, the Syncytium formation (HIV-1NL4-3 [1]; peptide 1 μm) is reported as “−” and the P24 (HIV-1NL4-3 [1]; peptide 10 μm) is reported as 0 pg/mL. For the same molecule, the Syncytium formation (HIV-1NL4-3 [1]; peptide 10 μm) was “−”.
`CC(C)C[C@H](NC(=O)[C@@H]1CCCN1C(=O)[C@H](CO)NC(=O)[C@H](Cc1ccc(O)cc1)NC(=O)CNC(=O)[C@H](CCC(N)=O)NC(=O)[C@@H](N)CCCNC(=N)N)C(=O)NCCCC[C@H](NC(=O)[C@H](CC(C)C)NC(=O)[C@@H]1CCCN1C(=O)[C@H](CO)NC(=O)[C@H](Cc1ccc(O)cc1)NC(=O)CNC(=O)[C@H](CCC(N)=O)NC(=O)[C@@H](N)CCCNC(=N)N)C(=O)NCCCC[C@H](NC(=O)[C@H](CCCCNC(=O)[C@H](CC(C)C)NC(=O)[C@@H]1CCCN1C(=O)[C@H](CO)NC(=O)[C@H](Cc1ccc(O)cc1)NC(=O)CNC(=O)[C@H](CCC(N)=O)NC(=O)[C@@H](N)CCCNC(=N)N)NC(=O)[C@H](CC(C)C)NC(=O)[C@@H]1CCCN1C(=O)[C@H](CO)NC(=O)[C@H](Cc1ccc(O)cc1)NC(=O)CNC(=O)[C@H](CCC(N)=O)NC(=O)[C@@H](N)CCCNC(=N)N)C(=O)NCCCC[C@H](NC(=O)[C@H](CCCCNC(=O)[C@H](CCCCNC(=O)[C@H](CC(C)C)NC(=O)[C@@H]1CCCN1C(=O)[C@H](CO)NC(=O)[C@H](Cc1ccc(O)cc1)NC(=O)CNC(=O)[C@H](CCC(N)=O)NC(=O)[C@@H](N)CCCNC(=N)N)NC(=O)[C@H](CC(C)C)NC(=O)[C@@H]1CCCN1C(=O)[C@H](CO)NC(=O)[C@H](Cc1ccc(O)cc1)NC(=O)CNC(=O)[C@H](CCC(N)=O)NC(=O)[C@@H](N)CCCNC(=N)N)NC(=O)[C@H](CCCCNC(=O)[C@H](CC(C)C)NC(=O)[C@@H]1CCCN1C(=O)[C@H](CO)NC(=O)[C@H](Cc1ccc(O)cc1)NC(=O)CNC(=O)[C@H](CCC(N)=O)NC(=O)[C@@H](N)CCCNC(=N)N)NC(=O)[C@H](CC(C)C)NC(=O)[C@@H]1CCCN1C(=O)[C@H](CO)NC(=O)[C@H](Cc1ccc(O)cc1)NC(=O)CNC(=O)[C@H](CCC(N)=O)NC(=O)[C@@H](N)CCCNC(=N)N)C(=O)NCCC(=O)O` [RL1, (RQGYSPL)8-(K)4-(K)2-K-βA-OH] was tested, and the Inhibition (H × 10 (HIV-1) strain; [3]) was 79.82%, the Inhibition (H × 10 (HIV-1) strain; [4]) was 31.29% and the Inhibition (H × 10 (HIV-1) strain; [5]) was 99.09%. The Inhibition (H × 10 (HIV-1) strain; [6]) was 99.75%, the Inhibition (H × 10 (HIV-1) strain; [7]) was 61.45% and the “cellular toxicity and lethal activity” value (C57/BL6 and Balb-C mice) was “neither cellular toxicity nor lethal activity”.
For (AcRQGYSPL)2-K-βA [Peptide 12], the Syncytium formation (HIV-1NL4-3 [1]; peptide 1 μm) was “++ (number of syncytia present in the well were similar to that in control untreated well (35 to 40 syncitia per well))” and the Syncytium formation (HIV-1NL4-3 [1]; peptide 10 μm) was “++ (number of syncytia present in the well were similar to that in control untreated well (35 to 40 syncitia per well))”.
(D RQGYSPL)2-K-βA [Peptide 9] was tested, and the Syncytium formation (HIV-1NL4-3 [1]; peptide 1 μm) was “++ (number of syncytia present in the well were similar to that in control untreated well (35 to 40 syncitia per well))” and the Syncytium formation (HIV-1NL4-3 [1]; peptide 10 μm) was “++ (number of syncytia present in the well were similar to that in control untreated well (35 to 40 syncitia per well))”.
With (D-LPSYGQR)8-K4-K2-K-βA the “inhibition of HIV infection of C8166 cells” value (HIV-1NL4-3 [1]; at a concentration of 1 μM) was “totally inhibit” and the “inhibition of HIV infection of PBMCs” value (HIV-1NL4-3 [2]) was “totally inhibit”.
(GPGRAF)8-(K)4-(K)2-K-βA-OH [SPC3] gave an Inhibition (H × 10 (HIV-1) strain; [3]) of 89.13%, a p24 (H × 10 (HIV-1) strain; [3]) of 0.4865 ng/mL and an Inhibition (H × 10 (HIV-1) strain; [4]) of 0%. For the same molecule, the p24 (H × 10 (HIV-1) strain; [4]) was 4.786 ng/mL, the Inhibition (H × 10 (HIV-1) strain; [5]) was 98.89% and the p24 (H × 10 (HIV-1) strain; [5]) was 0.05556 ng/mL. It also gave an Inhibition (H × 10 (HIV-1) strain; [6]) of 98.47%, a p24 (H × 10 (HIV-1) strain; [6]) of 0.09351 ng/mL and an Inhibition (H × 10 (HIV-1) strain; [7]) of 50.78%. For the same molecule, the p24 (H × 10 (HIV-1) strain; [7]) was 2.216 ng/mL, the “Inhibition (%) of clinical isolates infectivity” value (“Inhibition (%)” below) (HIV-1 W5A2A9 isolate; [conc] 1 × 10^−5, HIV-1 W5A2A9 isolate) was 85.7% and the “Inhibition (%)” value (HIV-1 W5A2A9 isolate; [conc] 1 × 10^−6, HIV-1 W5A2A9 isolate) was 28.6%. For the same molecule, the “Inhibition (%)” value (HIV-1 W5A2A9 isolate; [conc] 1 × 10^−7, HIV-1 W5A2A9 isolate) was 0%, the “Inhibition (%)” value (HIV-1 W5A2A9 isolate; [conc] 5 × 10^−6, HIV-1 W5A2A9 isolate) was 50.0% and the “Inhibition (%)” value (HIV-1 W5A2A9 isolate; [conc] 5 × 10^−7, HIV-1 W5A2A9 isolate) was 0%. The “Inhibition (%)” value (HIV-1 W5A2A9 isolate; [conc] 5 × 10^−8, HIV-1 W5A2A9 isolate) was 0%.
With (GYSPL)2-K-βA [Peptide 6] the Syncytium formation (HIV-1NL4-3 [1]; peptide 1 μm) was “± (presence of 1 to 3 syncitia in the well)” and the Syncytium formation (HIV-1NL4-3 [1]; peptide 10 μm) was “± (presence of 1 to 3 syncitia in the well)”.
(KQGYSPL)2-K-βA [Peptide 10] was tested, and the Syncytium formation (HIV-1NL4-3 [1]; peptide 1 μm) was “++ (number of syncytia present in the well were similar to that in control untreated well (35 to 40 syncitia per well))” and the Syncytium formation (HIV-1NL4-3 [1]; peptide 10 μm) was “++ (number of syncytia present in the well were similar to that in control untreated well (35 to 40 syncitia per well))”.
With (LPSYGQR)8-K4-K2—K-βA the “inhibition of syncytium formation and p24 production of HIV-infected cells” value (HIV-1NL4-3 [1]; 5 μM) was 100%.
